From US20150119352A1, “DINUCELOSIDE POLYPHOSPHATES FOR THE TREATMENT OF PAIN” (GlobalAcorn Ltd., priority 2012, published 2015)
Read-outs that look alike come from different tables or passages of the source.

Assays:
P2X3 receptors = target: T1, P2X3 receptors (Homo sapiens, UniProt P56373); conditions: Jarvis et al, 2002; cited from earlier work
T1 sequence (P56373 1-397): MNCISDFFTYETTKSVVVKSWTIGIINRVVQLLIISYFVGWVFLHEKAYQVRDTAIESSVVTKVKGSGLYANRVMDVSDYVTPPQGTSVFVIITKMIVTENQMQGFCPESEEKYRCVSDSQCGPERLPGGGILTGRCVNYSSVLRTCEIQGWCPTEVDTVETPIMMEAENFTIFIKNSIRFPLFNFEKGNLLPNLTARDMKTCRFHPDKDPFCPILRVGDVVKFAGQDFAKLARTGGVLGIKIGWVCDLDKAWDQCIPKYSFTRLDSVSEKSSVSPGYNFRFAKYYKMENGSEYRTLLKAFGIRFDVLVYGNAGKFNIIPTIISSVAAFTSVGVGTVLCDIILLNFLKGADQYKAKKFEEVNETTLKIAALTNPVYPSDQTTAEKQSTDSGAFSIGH

male Wistar rats = experiment: Formalin test (nociceptive behaviour, spontaneous jerking of injected paw); type: in vivo, rat; conditions: for IC50: Rattus norvegicus, Table 1, concentration; for IC50 First phase (acute pain), calculated / IC50 Second phase (chronic pain), calculated: Table 1, assuming 40 g rat body weight; for First phase (acute pain) / First phase (acute pain) (μg/kg) / Second phase (chronic pain) / Second phase (chronic pain) (μg/kg): Table 2; for First phase (acute pain) Human (70 kg) nmol / Second phase (chronic pain) Human (70 kg) nmol: Table 2, estimated indicative dose for 70 kg human; for First phase (acute pain) Rat (40 g) nmol / Second phase (chronic pain) Rat (40 g) nmol: Table 2, per 40 g rat
Method: FIG. 6. Effects of subcutaneous Ap4A analogues on pain responses induced by intraplantar (right hindpaw) formalin injection. Rats were subcutaneously injected with formalin solution alone (0.5%, 50 μL, control) or co-injected with the formalin solution and solutions with AppCH2ppA (1 μM-100 μM, 100 μL) or AppNHppA (0.1 μM-100 μM, 100 μL). Age-matched control animals were injected with saline. A. Time-course of the effects of subcutaneous AppCH2ppA (a) and AppNHppA (b) on the number of the spontaneous jerkings of the injected paw. B. Bar-graphs of the effects of AppCH2ppA (a, b) and AppNHppA (c, d) on the integral number of spontaneous jerkings. Measurements were made during the acute phase (0-6 min) and tonic phase (7-45 min) of the formalin response. C. Dose-response curves for AppCH2ppA (a) and AppNHppA (b) during tonic and acute phases.
The formalin test experiments were performed on 21-day old male Wistar rats, weighing 40±5 g according to the method described previously (Simonetti et al, 2006; Yegutkin et al, 2008). Briefly, animal was acclimated to an acrylic observation chamber for at least 1 h before the injection of formalin ([…] of 0.5% solution in 0.9% saline) into the dorsal surface of the right hindpaw. Age-matched control animals were injected with saline (100 μL). Immediately after the injection, each animal was returned to the observation chamber and its behavioural characteristics were recorded for 45 min. We noticed consistently observed type of response: spontaneous jerking of the injected paw. The number of jerks was measured for each […], using self-developed computer software.
The effects of AppNHppA and AppCH2ppA were examined on the behavioral reactions of rats in inflammatory pain models. Injection of diluted formalin into a rodent's hindpaw produces a biphasic nociceptive response consisting of immediate (acute phase) and tonic (inflammatory phase) components. The first phase of a formalin response (i.e. 0-5 min after injection) involves a direct effect of formalin on the pain receptors, while changes in animal behavior during the second tonic phase (i.e. 7-45 min after injection) are caused by hyperalgesia that develops due to the sensitization of nociceptive and spinal neurons via mechanisms that are triggered by repetitive stimulation during the first phase.

[1] = read-out: IC50 First phase (acute pain)
[2] = read-out: IC50 Second phase (chronic pain)

Compound	concentration range of binding to P2X3 receptors (P2X3 receptors)	IC50 (male Wistar rats; [1]) [nM]	IC50 (male Wistar rats; [2]) [nM]	IC50 First phase (acute pain), calculated (male Wistar rats) [nmol/kg]	IC50 Second phase (chronic pain), calculated (male Wistar rats) [nmol/kg]	First phase (acute pain) (male Wistar rats) [nmol/kg]	First phase (acute pain) (μg/kg) (male Wistar rats)	Second phase (chronic pain) (male Wistar rats) [nmol/kg]	Second phase (chronic pain) (μg/kg) (male Wistar rats)	First phase (acute pain) Human (70 kg) nmol (male Wistar rats) [nmol]	Second phase (chronic pain) Human (70 kg) nmol (male Wistar rats) [nmol]	First phase (acute pain) Rat (40 g) nmol (male Wistar rats) [nmol]	Second phase (chronic pain) Rat (40 g) nmol (male Wistar rats) [nmol]
O=C(O)c1cc(C(=O)O)c(C(=O)N(Cc2cccc(Oc3ccccc3)c2)[C@H]2CCCc3ccccc32)cc1C(=O)O [A-317491]	within a micromolar range	–	–	–	–	–	–	–	–	–	–	–	–
Nc1ncnc2c1ncn2[C@@H](CO)O[C@@H](CO)COP(=O)(O)OP(=O)(O)CP(=O)(O)OP(=O)(O)OC[C@H](CO)O[C@H](CO)n1cnc2c(N)ncnc21 [AdiolppCH2ppAdiol]	–	~50000	84 ± 140	~125	0.21 ± 0.35	~125	(104) μg/kg	0.21 ± 0.35	(0.175) μg/kg	8750	14.7	5	0.0084
Nc1nc2c(ncn2[C@@H]2O[C@H](COP(=O)(O)OP(=O)(O)CP(=O)(O)OP(=O)(O)OC[C@H]3O[C@@H](n4cnc5c(N)ncnc54)C(O)C3O)C(O)[C@@H]2O)c(=O)[nH]1 (stereo partly shown) [AppCH2ppG]	–	> 100000	180 ± 120	>250	0.45 ± 0.30	>250	(209) μg/kg	0.45 ± 0.30	(0.376) μg/kg	17500	31.5	10	0.018
